{"source": "PubChem BioAssay (NCI)", "experiment_in_all_cases": "inhibition of tumour cell growth, NCI panel, 384-well format", "key": {"786-0 renal": {"tested_on": "786-0 renal"}, "A498 renal": {"tested_on": "A498 renal"}, "A549 NSCLC": {"tested_on": "A549 NSCLC"}, "ACHN renal": {"tested_on": "ACHN renal"}, "BT-549 breast": {"tested_on": "BT-549 breast"}, "CAKI-1 renal": {"tested_on": "CAKI-1 renal"}, "CCRF-CEM leukemia": {"tested_on": "CCRF-CEM leukemia"}, "COLO 205 colon": {"tested_on": "COLO 205 colon"}, "DU-145 prostate": {"tested_on": "DU-145 prostate"}, "EKVX NSCLC": {"tested_on": "EKVX NSCLC"}, "HCC-2998 colon": {"tested_on": "HCC-2998 colon"}, "HCT-116 colon": {"tested_on": "HCT-116 colon"}, "HCT-15 colon": {"tested_on": "HCT-15 colon"}, "HL-60(TB) leukemia": {"tested_on": "HL-60(TB) leukemia"}, "HOP-62 NSCLC": {"tested_on": "HOP-62 NSCLC"}, "HS 578T breast": {"tested_on": "HS 578T breast"}, "HT29 colon": {"tested_on": "HT29 colon"}, "IGROV1 ovarian": {"tested_on": "IGROV1 ovarian"}, "K-562 leukemia": {"tested_on": "K-562 leukemia"}, "KM12 colon": {"tested_on": "KM12 colon"}, "LOX IMVI melanoma": {"tested_on": "LOX IMVI melanoma"}, "M14 melanoma": {"tested_on": "M14 melanoma"}, "MALME-3M melanoma": {"tested_on": "MALME-3M melanoma"}, "MCF7 breast": {"tested_on": "MCF7 breast"}, "MDA-MB-231 breast": {"tested_on": "MDA-MB-231 breast"}, "MDA-MB-435 melanoma": {"tested_on": "MDA-MB-435 melanoma"}, "MDA-MB-468 breast": {"tested_on": "MDA-MB-468 breast"}, "MOLT-4 leukemia": {"tested_on": "MOLT-4 leukemia"}, "NCI-H226 lung": {"tested_on": "NCI-H226 lung"}}, "note": "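GI50: concentration for 50% inhibition of growth. TGI: concentration producing complete growth inhibition.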"}
{"smiles": "Cc1[nH]ncc1-c1cc2nc(C3CC4CCN3CC4)[nH]c(=O)c2s1", "note": "(configuration not stated)", "values": [{"measurement": "GI50", "setting": "786-0 renal", "result": 2.75, "unit": "µM"}, {"measurement": "TGI", "setting": "786-0 renal", "result": 55.1, "unit": "µM"}, {"measurement": "GI50", "setting": "A498 renal", "result": 0.0828, "unit": "µM"}, {"measurement": "TGI", "setting": "A498 renal", "result": 70.7, "unit": "µM"}, {"measurement": "GI50", "setting": "A549 NSCLC", "result": 2.86, "unit": "µM"}, {"measurement": "TGI", "setting": "A549 NSCLC", "result": "> 100", "unit": "µM"}, {"measurement": "GI50", "setting": "ACHN renal", "result": 1.96, "unit": "µM"}, {"measurement": "TGI", "setting": "ACHN renal", "result": "> 100", "unit": "µM"}, {"measurement": "GI50", "setting": "BT-549 breast", "result": 1.85, "unit": "µM"}, {"measurement": "TGI", "setting": "BT-549 breast", "result": 6.54, "unit": "µM"}, {"measurement": "GI50", "setting": "CAKI-1 renal", "result": 1.56, "unit": "µM"}, {"measurement": "TGI", "setting": "CAKI-1 renal", "result": "> 100", "unit": "µM"}, {"measurement": "GI50", "setting": "CCRF-CEM leukemia", "result": 0.138, "unit": "µM"}, {"measurement": "TGI", "setting": "CCRF-CEM leukemia", "result": 0.905, "unit": "µM"}, {"measurement": "GI50", "setting": "COLO 205 colon", "result": 0.0396, "unit": "µM"}, {"measurement": "TGI", "setting": "COLO 205 colon", "result": 0.198, "unit": "µM"}, {"measurement": "GI50", "setting": "DU-145 prostate", "result": 0.876, "unit": "µM"}, {"measurement": "TGI", "setting": "DU-145 prostate", "result": "> 100", "unit": "µM"}, {"measurement": "GI50", "setting": "EKVX NSCLC", "result": 5.93, "unit": "µM"}, {"measurement": "TGI", "setting": "EKVX NSCLC", "result": 42.9, "unit": "µM"}, {"measurement": "GI50", "setting": "HCC-2998 colon", "result": 3.48, "unit": "µM"}, {"measurement": "TGI", "setting": "HCC-2998 colon", "result": 24.2, "unit": "µM"}, {"measurement": "GI50", "setting": "HCT-116 colon", "result": 2.16, "unit": "µM"}, {"measurement": "TGI", "setting": "HCT-116 colon", "result": "> 100", "unit": "µM"}, {"measurement": "GI50", "setting": "HCT-15 colon", "result": 2.74, "unit": "µM"}, {"measurement": "TGI", "setting": "HCT-15 colon", "result": "> 100", "unit": "µM"}, {"measurement": "GI50", "setting": "HL-60(TB) leukemia", "result": 0.562, "unit": "µM"}, {"measurement": "TGI", "setting": "HL-60(TB) leukemia", "result": 1.8, "unit": "µM"}, {"measurement": "GI50", "setting": "HOP-62 NSCLC", "result": 2.31, "unit": "µM"}, {"measurement": "TGI", "setting": "HOP-62 NSCLC", "result": 16.1, "unit": "µM"}, {"measurement": "GI50", "setting": "HS 578T breast", "result": 1.48, "unit": "µM"}, {"measurement": "TGI", "setting": "HS 578T breast", "result": 3.32, "unit": "µM"}, {"measurement": "GI50", "setting": "HT29 colon", "result": 14.4, "unit": "µM"}, {"measurement": "TGI", "setting": "HT29 colon", "result": "> 100", "unit": "µM"}, {"measurement": "GI50", "setting": "IGROV1 ovarian", "result": 3.76, "unit": "µM"}, {"measurement": "TGI", "setting": "IGROV1 ovarian", "result": "> 51.1", "unit": "µM"}, {"measurement": "GI50", "setting": "K-562 leukemia", "result": 5.24, "unit": "µM"}, {"measurement": "TGI", "setting": "K-562 leukemia", "result": "> 100", "unit": "µM"}, {"measurement": "GI50", "setting": "KM12 colon", "result": 3.22, "unit": "µM"}, {"measurement": "TGI", "setting": "KM12 colon", "result": 25.7, "unit": "µM"}, {"measurement": "GI50", "setting": "LOX IMVI melanoma", "result": 0.888, "unit": "µM"}, {"measurement": "TGI", "setting": "LOX IMVI melanoma", "result": 14.6, "unit": "µM"}, {"measurement": "GI50", "setting": "M14 melanoma", "result": 5.7, "unit": "µM"}, {"measurement": "TGI", "setting": "M14 melanoma", "result": 19.4, "unit": "µM"}, {"measurement": "GI50", "setting": "MALME-3M melanoma", "result": 11.1, "unit": "µM"}, {"measurement": "TGI", "setting": "MALME-3M melanoma", "result": 29.7, "unit": "µM"}, {"measurement": "GI50", "setting": "MCF7 breast", "result": 3.55, "unit": "µM"}, {"measurement": "TGI", "setting": "MCF7 breast", "result": "> 100", "unit": "µM"}, {"measurement": "GI50", "setting": "MDA-MB-231 breast", "result": 7.14, "unit": "µM"}, {"measurement": "TGI", "setting": "MDA-MB-231 breast", "result": "> 100", "unit": "µM"}, {"measurement": "GI50", "setting": "MDA-MB-435 melanoma", "result": 9.26, "unit": "µM"}, {"measurement": "TGI", "setting": "MDA-MB-435 melanoma", "result": 28, "unit": "µM"}, {"measurement": "GI50", "setting": "MDA-MB-468 breast", "result": 1.17, "unit": "µM"}, {"measurement": "TGI", "setting": "MDA-MB-468 breast", "result": 20.9, "unit": "µM"}, {"measurement": "GI50", "setting": "MOLT-4 leukemia", "result": 1.14, "unit": "µM"}, {"measurement": "TGI", "setting": "MOLT-4 leukemia", "result": 11.3, "unit": "µM"}, {"measurement": "GI50", "setting": "NCI-H226 lung", "result": 2.53, "unit": "µM"}]}
